How the values were obtained:
[1] = removal of Cu^2+ from an equimolar mixture of Cu^2+ and Fe^3+; details: 3 mM each Cu^2+ and Fe^3+, 6 mM citric acid, pH 6.8 with KOH; 4.5 mM carrier in chloroform; receiver 3 mM DTPA at pH 2
Procedure: A third example is the removal of Cu^2+ from an equimolar mixture of Cu^2+ and Fe^3+ (3 mM each in the presence of 6 mM citric acid titrated to pH 6.8 with KOH) with less than 10% contamination of Fe^3+, by using a carrier (n=2, m=0, q=0, R^1 =CH3) 4.5 mM concentration in chloroform and in the receiver phase 3 mM DTPA at pH2.

[2] = octanol saline (1:1) partition; type: physicochemical; details: read-out: Partition Coefficients (converted)
Description: Partition coefficients relate to octanol saline (1:1) partition

[3] = selective extraction and transport from an equimolar mixture of six bivalent metal ions through a CHCl3 bulk membrane (U-tube, ion chromatography)
Procedure: Several of the ion binders, when incorporated into bulk membranes, selectively extract and transport a specific metal ion from a plurality of cations. An example is the quantitative separation of Cu^2+ from a mixture of six two-valent metal ions. This is illustrated by the quantitative removal of Cu^2+ from an equimolar mixture (10 mM each) of Pb^2+, Cu^2+, Cd^2+, Co^2+, Zn^2+ and Ni^2+ in water.

[4] = removal of Zn^2+ from an equimolar mixture of Zn^2+ and Cd^2+ (ion chromatography); details: 20 mM each Zn^2+ and Cd^2+; 3.0 mM carrier in chloroform

## CN(O)C(=O)CCOCC(C)(C)COCCC(=O)N(C)O [q = 0, n=2, R^1=Me, R^2=Me, R^3=Me]
[1]
  contamination of Fe^3+ on removal of Cu^2+: less than 10%
[2]
  logP: -0.0862

## CCOC(=O)CCN(O)C(=O)COCC(C)(C)COCC(=O)N(O)CCC(=O)OCC
[2]
  logP: 0.5

## CC(NC(=O)COCC(C)(C)COCC(=O)NC(C)C(=O)N(C)O)C(=O)N(C)O (stereo not drawn) [q = 1, n=1, R=Me, R^1=Me, R^2=Me, R^3=Me]
[2]
  logP: 0.29

## CC(C)C[C@H](NC(=O)CCOCC(C)(C)COCCC(=O)N[C@@H](CC(C)C)C(=O)N(C)O)C(=O)N(C)O
[3]; 10 mM each of Pb^2+, Cu^2+, Cd^2+, Co^2+, Zn^2+, Ni^2+ in water, 0.3 mM carrier in CHCl3, receiver 0.1 M H2SO4
  removal of Cu^2+ from equimolar mixture: quantitatively removed
[3]; 10 mM each of six metal ions, 0.3 mM carrier in CHCl3, receiver 0.1 M H2SO4, DIONEX ion chromatography
  contamination by other metals: without a trace of contamination by other metals
[3]; after 160 hours, equimolar mixture of six cations (FIG. 1B)
  metal content of receiver arm after extraction: containing only Cu^2+
[4]
  contamination of Cd^2+ on removal of Zn^2+: without any contamination of Cd^2+
[2]
  logP: 1.2

## CC(C)CC(NC(=O)COCC(C)(C)COCC(=O)NC(CC(C)C)C(=O)N(C)O)C(=O)N(C)O (stereo not drawn)
[2]
  logP: 0.568

## CCCC(C)(COCC(=O)N(C)O)COCC(=O)N(C)O [q = 0, n=1, R^1=Me, R^2=Me, R^3=Pr]
[2]
  logP: 0.29

## CN(O)C(=O)COCC(C)(C)COCC(=O)N(C)O [q = 0, n=1, R^1=M, R^2=Me, R^3=Me]
[2]
  logP: 0.352
